Laboratory results reported in patent US7902195B2, “Pyridine [3,4-b] pyrazinones” (Pharmacia & Upjohn Company LLC, priority 2006, dated 2011).
pIC50: −log10 of the molar value.

Biological target: T1, PDE5 enzyme isolated from human platelets (Homo sapiens, UniProt O76074)
T1 construct: The PDE5 enzyme for use in the assay can be obtained from human platelets; from tissue; host or cells: human platelets
Assay: Alternative human platelet PDE5 enzyme inhibition scintillation proximity assay (Method 2)
Format: biochemical
Settings: cGMP substrate 50 nM, 60 minutes at room temperature
Excerpt: The IC50 of a test compound can be measured using an in vitro assay using PDE5 enzyme isolated from human platelets. The IC50 is the concentration of test compound required to inhibit the hydrolysis of cGMP to GMP by the PDE5 enzyme by 50% relative to the activity of uninhibited controls. The PDE5 enzyme for use in the assay can be obtained from human platelets by appropriate modification of the method of Thompson, W J et al.; Biochemistry 18(23), 5228-5237, 1979, as described by Ballard S A et al.; J. Urology 159(6), 2164-2171, 1998. The PDE5 enzyme so obtained can be used to catalyze the hydrolysis of [^3H]cGMP (Amersham Biosciences) to 5′ nucleotide [^3H]GMP. The [^3H]GMP binds to yttrium silicate SPA beads (Amersham Biosciences) and is detected by scintillation counting. More specifically, the effect of a test compound at different concentrations can be evaluated in the assay by contacting the compound with a fixed amount of PDE5 enzyme in the presence of substrate (cGMP […] in a 3:1 ratio unlabelled to [^3H]-labeled). Scintillation counting can be used as described above to determine relative PDE5 enzyme activity. The inhibition of PDE5 enzyme activity is then calculated relative to total PDE5 enzyme activity of uninhibited controls.
Method 2: Alternative Human Platelet PDE5 Enzyme Inhibition Scintillation Proximity Assay
PDE5 IC50 Assay: 96-Well Microtiter Plate Format
Buffer A: 20 mM Tris-HCl, 5 mM MgCl2, pH 7.4
Buffer B: 2 mg/ml BSA in Buffer A (enzyme buffer)
cGMP substrate: Final concentration of 50 nM in assay
The amount of ^3H-labeled substrate added depends upon the specific activity of [^3H]cGMP, and it is diluted in Buffer A.
PDE enzyme: Prepared in Buffer B. The dilution factor is determined by enzyme activity.
SPA beads: 4 mg/ml suspension prepared in dH2O.
Stocks of standard and test compound are prepared at 2 mM in 100% DMSO. The test compound is serially diluted in a dilution plate using an 8-point ⅕ log dilution format such that the starting concentration in the assay is 2 μM for an initial IC50 screen. 27 μl of Buffer A are added to the wells of the assay plates. From the dilution plate, 3 μl of diluted compound is delivered in duplicate or 3 μl of 100% DMSO (for positive and negative controls) are added. 30 μl of enzyme are added. For the negative control wells, Buffer B is substituted in place of the enzyme. 30 μl of labeled substrate are added to all wells.
After incubating for 60 minutes at room temperature, the reaction is stopped with the addition of 30 μl of the yttrium silicate beads. These beads are dense and require constant agitation while being added to the plate. The plates are sealed and shaken on a plate shaker for fifteen minutes to allow the beads to bind the GMP product.
After allowing the beads to settle for 30 minutes, plates are read on a NXT TopCount scintillation counter and the data are analyzed as follows. Percent inhibition values are calculated using the means of the 0% and 100% controls on each plate. The estimates of the 4-parameters of the logistic, sigmoid dose-response model are then calculated using the well-level percent inhibition value for the compound. The formula for the four-parameter logistic model may be expressed as Y=((a−d)/(1+(X/c)^b))+d, where Y is the response, X is the concentration, a is the lower asymptote (minimum response), d is the upper asymptote (maximum response), c is the model IC50 (in the same units as X), and b is the slope (as described in De Lean, A., P. J. Munson, and D. Rodbard (“Simultaneous analysis of families of sigmoidal curves: application to bioassay, radioligand assay, and physiological dose-response curves.” Am. J. Physiol. 235(2): E97-E102, 1978). These estimates are used to calculate the concentration that corresponds to 50% inhibition.
Compounds were tested in accordance with Method 2 above yielding the IC50 values described in Table C.

Compound	pIC50
7-(4-(dimethylamino)-2-methylphenyl)-3-(4-(2-hydroxyethyl)piperazin-1-yl)-1-(2-propoxyethyl)pyrido[3,4-b]pyrazin-2(1H)-one [Example 15]	5.92
CCCOCCn1c(=O)c(N2CCNCC2)nc2cnc(-c3ccc(OC)nc3)cc21 [Example 1, 7-(6-methoxypyridin-3-yl)-3-(piperazin-1-yl)-1-(2-propoxyethyl)pyrido[3,4-b]pyrazin-2(1H)-one]	8.48
CCCOCCn1c(=O)c(N2C[C@H]3C[C@@H]2CN3)nc2cnc(-c3ccc(OC)nc3)cc21 [Example 2, 3-[(1R,4R)-2,5-diazabicyclo[2.2.1]hept-2-yl]-7-(6-methoxypyridin-3-yl)-1-(2-propoxyethyl)pyrido[3,4-b]pyrazin-2(1H)-one]	8.62
CCCOCCn1c(=O)c(N2CCOCC2)nc2cnc(-c3ccc(OC)nc3)cc21 [Example 3, 7-(6-methoxypyridin-3-yl)-3-morpholin-4-yl-1-(2-propoxyethyl)pyrido[3,4-b]pyrazin-2(1H)-one]	9.00
CCCOCCn1c(=O)c(N2CCCC(O)C2)nc2cnc(-c3ccc(OC)nc3)cc21 (stereo not shown) [Example 4, 3-(3-hydroxypiperidin-1-yl)-7-(6-methoxypyridin-3-yl)-1-(2-propoxyethyl)pyrido[3,4-b]pyrazin-2(1H)-one]	9.65
CCCOCCn1c(=O)c(N2CCN(CCO)CC2)nc2cnc(-c3ccc(OC)nc3)cc21 [Example 5, 3-[4-(2-hydroxyethyl)piperazin-1-yl]-7-(6-methoxypyridin-3-yl)-1-(2-propoxyethyl)pyrido[3,4-b]pyrazin-2(1H)-one]	9.69
CCCOCCn1c(=O)c(N2CCCC(CO)C2)nc2cnc(-c3ccc(OC)nc3)cc21 (stereo not shown) [Example 6, 3-[3-(hydroxymethyl)piperidin-1-yl]-7-(6-methoxypyridin-3-yl)-1-(2-propoxyethyl)pyrido[3,4-b]pyrazin-2(1H)-one]	9.50
CCCOCCn1c(=O)c(N2CCN(CC(=O)OC(C)(C)C)CC2)nc2cnc(-c3ccc(OC)nc3)cc21 [Example 7, tert-butyl {4-[7-(6-methoxypyridin-3-yl)-2-oxo-1-(2-propoxyethyl)-1,2-dihydropyrido[3,4-b]pyrazin-3-yl]piperazin-1-yl}acetate]	10.08
CCCOCCn1c(=O)c(N2CCN(CC(=O)O)CC2)nc2cnc(-c3ccc(OC)nc3)cc21 [Example 8, {4-[7-(6-methoxypyridin-3-yl)-2-oxo-1-(2-propoxyethyl)-1,2-dihydropyrido[3,4-b]pyrazin-3-yl]piperazin-1-yl}acetic acid]	9.29
CCCOCCn1c(=O)c(N2CCN(CCO)[C@@H](C)C2)nc2cnc(-c3ccc(OC)nc3)cc21 [Example 9, 3-[(3S)-4-(2-hydroxyethyl)-3-methylpiperazin-1-yl]-7-(6-methoxypyridin-3-yl)-1-(2-propoxyethyl)pyrido[3,4-b]pyrazin-2(1H)-one]	9.61
CCCOCCn1c(=O)c(N2CC(C)N(CCCO)C(C)C2)nc2cnc(-c3ccc(OC)nc3)cc21 (stereo not shown) [Example 10, 3-[4-(3-hydroxypropyl)-3,5-dimethylpiperazin-1-yl]-7-(6-methoxypyridin-3-yl)-1-(2-propoxyethyl)pyrido[3,4-b]pyrazin-2(1H)-one]	9.71
CCCOCCn1c(=O)c(N2CCN(CCCO)CC2)nc2cnc(-c3ccc(OC)nc3)cc21 [Example 11, 3-[4-(3-hydroxypropyl)piperazin-1-yl]-7-(6-methoxypyridin-3-yl)-1-(2-propoxyethyl)pyrido[3,4-b]pyrazin-2(1H)-one]	9.75
CCCOCCn1c(=O)c(N2CCCN(CCO)CC2)nc2cnc(-c3ccc(OC)nc3)cc21 [Example 12, 3-[4-(2-hydroxyethyl)-1,4-diazepan-1-yl]-7-(6-methoxypyridin-3-yl)-1-(2-propoxyethyl)pyrido[3,4-b]pyrazin-2(1H)-one]	9.14
CCCOCCn1c(=O)c(N2CCN(CCO)CC2)nc2cnc(-c3ccc(Cl)cc3)cc21 [Example 13, 7-(4-chlorophenyl)-3-(4-(2-hydroxyethyl)piperazin-1-yl)-1-(2-propoxyethyl)pyrido[3,4-b]pyrazin-2(1H)-one]	8.87
CCCOCCn1c(=O)c(N2CCN(CCO)CC2)nc2cnc(-c3ccc(O)cc3)cc21 [Example 14, 3-(4-(2-hydroxyethyl)piperazin-1-yl)-7-(4-hydroxyphenyl)-1-(2-propoxyethyl)pyrido[3,4-b]pyrazin-2(1H)-one]	6.08
CCCOCCn1c(=O)c(N2CCN(CCO)CC2)nc2cnc(-c3cccc(Cl)c3)cc21 [Example 16, 7-(3-chlorophenyl)-3-(4-(2-hydroxyethyl)piperazin-1-yl)-1-(2-propoxyethyl)pyrido[3,4-b]pyrazin-2(1H)-one]	8.48
CCCOCCn1c(=O)c(N2CCN(CCO)CC2)nc2cnc(-c3ccc(OC)cc3)cc21 [Example 17, 3-(4-(2-hydroxyethyl)piperazin-1-yl)-7-(4-methoxyphenyl)-1-(2-propoxyethyl)pyrido[3,4-b]pyrazin-2(1H)-one]	8.11
CCCOCCn1c(=O)c(N2CCN(CCO)CC2)nc2cnc(-c3ccc(F)cc3F)cc21 [Example 18, 7-(2,4-difluorophenyl)-3-(4-(2-hydroxyethyl)piperazin-1-yl)-1-(2-propoxyethyl)pyrido[3,4-b]pyrazin-2(1H)-one]	7.52
CCCOCCn1c(=O)c(N2CCN(CCO)CC2)nc2cnc(-c3ccc(S(=O)(=O)CC)cc3)cc21 [Example 19, 7-(4-(ethylsulfonyl)phenyl)-3-(4-(2-hydroxyethyl)piperazin-1-yl)-1-(2-propoxyethyl)pyrido[3,4-b]pyrazin-2(1H)-one]	6.99
CCCOCCn1c(=O)c(N2CCN(CCO)CC2)nc2cnc(-c3cccc(OC)c3F)cc21 [Example 20, 7-(2-fluoro-3-methoxyphenyl)-3-(4-(2-hydroxyethyl)piperazin-1-yl)-1-(2-propoxyethyl)pyrido[3,4-b]pyrazin-2(1H)-one]	8.80
CCCOCCn1c(=O)c(N2CCN(CCO)CC2)nc2cnc(-c3ccc(OC(C)C)cc3)cc21 [Example 21, 3-(4-(2-hydroxyethyl)piperazin-1-yl)-7-(4-isopropoxyphenyl)-1-(2-propoxyethyl)pyrido[3,4-b]pyrazin-2(1H)-one]	6.38
CCCOCCn1c(=O)c(N2CCN(CCO)CC2)nc2cnc(-c3cccc4cnccc34)cc21 [Example 22, 3-(4-(2-hydroxyethyl)piperazin-1-yl)-7-(isoquinolin-5-yl)-1-(2-propoxyethyl)pyrido[3,4-b]pyrazin-2(1H)-one]	< 5.70
CCCOCCn1c(=O)c(N2CCN(CCO)CC2)nc2cnc(-c3ccc(CO)cc3)cc21 [Example 23, 3-(4-(2-hydroxyethyl)piperazin-1-yl)-7-(4-(hydroxymethyl)phenyl)-1-(2-propoxyethyl)pyrido[3,4-b]pyrazin-2(1H)-one]	5.75
CCCOCCn1c(=O)c(N2CCN(CCO)CC2)nc2cnc(-c3ccc(OCC)cc3)cc21 [Example 24, 7-(4-ethoxyphenyl)-3-(4-(2-hydroxyethyl)piperazin-1-yl)-1-(2-propoxyethyl)pyrido[3,4-b]pyrazin-2(1H)-one]	5.85
CCCOCCn1c(=O)c(N2CCN(CCO)CC2)nc2cnc(-c3ccc(F)c(C)c3)cc21 [Example 25, 7-(4-fluoro-3-methylphenyl)-3-(4-(2-hydroxyethyl)piperazin-1-yl)-1-(2-propoxyethyl)pyrido[3,4-b]pyrazin-2(1H)-one]	8.73
